ChEMBL document CHEMBL4725362, “Discovery of Novel Inhibitors of a Critical Brain Enzyme Using a Homology Model and a Deep Convolutional Neural Network” (J Med Chem, 2020)

Assay: Inhibition of N-terminal MBP tagged and C-terminal 6x-His-tagged ANAT (unknown origin) expressed in Escherichia coli BL21(DE3) assessed as reduction in coenzyme A production using DTNB incubated up to 30 mins in presence of 0.1%Triton X-100
Set-up: species or system Homo sapiens

Structure (SMILES)	IC50
Nc1cc(N)nc(SCc2ncc(-c3ccc(F)cc3)o2)n1	4.82 µM
CCOC(=O)c1sc(NC(=O)COC(=O)Cn2c(=O)cnc3ccccc32)cc1C	6.1 µM
Cc1c(C(=O)O)sc2[nH]c(=O)cc(CSc3nnc(C4CC4)[nH]3)c12	1.25 µM
Cc1nnc(SCc2nnc(-c3c(-c4ccccc4)noc3C)o2)s1	2.71 µM
